Experimental data: US20120142771A1, “BIPHENYLACETAMIDE DERIVATIVE” (Dainippon Sumitomo Pharma Co., Ltd., priority 2008, published 2012)
Like-named read-outs stand apart in the source and are kept apart here.

How the values were obtained:
Type in all cases: in vivo, mice
[1] = system: maximum electroshock seizure (MES) model; assay: Maximum electroshock seizure (MES) model test; conditions: for responders at 50 mg/kg / responders at 100 mg/kg: Mus musculus, po, 1 h; for responders at 50 mg/kg / responders at 100 mg/kg / MES (positive number/tested number): inhibition of hind limb extension; for anticonvulsant action in maximum electroshock seizure (MES) model test: mice, oral 50 or 100 mg/kg, 1 hour after administration
Summary of the method: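 Tonic hind-limb extension was elicited by corneal electroshock (60 Hz, 25 mA, 0.2 s) 1 h after oral dosing. Test compounds were given at 50 or 100 mg/kg to groups of 3 male Slc: ddY mice (20-30 g), vehicle controls receiving 0.5% tragacanth or 0.5% methylcellulose solution.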

[2] = system: 6 Hz psychomotor seizure model; assay: 6 Hz psychomotor seizure model; conditions: for ED50: Mus musculus; for 6 Hz (Positive number/tested number): dose 100 mg/kg, 30 minutes or 1 hour after administration
Experimental: Test 4: Test of 6 Hz Psychomotor Seizure Model
Similar to Tests 1 and 2, Test 4 evaluates the anticonvulsant action of medicaments. However, unlike Tests 1 and 2, the animal model used herein represents clinical phenotypes of seizures resistant to existing antiepileptic drugs. […] After 30 minutes or an hour of administration, their corneas were electrically stimulated (6 Hz, 32 mA, 3 seconds) to induce symptoms of myoclonus in their forelimbs, Straub tail, and immobility. […] To the control mice, 0.5% tragacanth solution, 0.5% methylcellulose solution, or olive oil was administered.

[3] = system: subcutaneously pentetrazol-injected model (scPTZ); assay: Subcutaneously pentetrazol-injected model (scPTZ) test; conditions: pentetrazol 85 mg/kg s.c. after 1 hour; for responders at 50 mg/kg / responders at 100 mg/kg: Mus musculus, po, 1 h, read-out: scPTZ (positive number/tested number) (converted); for responders at 50 mg/kg / responders at 100 mg/kg / scPTZ (positive number/tested number): Slc: ddY male mice, 3 per group, observed 30 minutes for clonic convulsion; for anticonvulsant action in subcutaneously pentetrazol-injected model (scPTZ) test: mice, oral 50 or 100 mg/kg
Summary of the method: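 Pentetrazol (85 mg/kg, s.c.) was injected one hour after oral test compound at 50 or 100 mg/kg in groups of three male Slc:ddY mice weighing 20-30 g; vehicle controls got 0.5% tragacanth or 0.5% methylcellulose.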

[4] = 50 mg/kg oral, Slc: ddY male mice, 3 per group, electrical stimulation 1 hour after administration, read-out: MES (positive number/tested number) (converted)
[5] = 100 mg/kg oral, Slc: ddY male mice, 3 per group, electrical stimulation 1 hour after administration, read-out: MES (positive number/tested number) (converted)
[6] = 50 mg/kg oral, Slc: ddY male mice, 3 per group, electrical stimulation 1 hour after administration
[7] = 100 mg/kg oral, Slc: ddY male mice, 3 per group, electrical stimulation 1 hour after administration

Row | SMILES | responders at 50 mg/kg [1, 4] | responders at 100 mg/kg [1, 5] | responders at 50 mg/kg ([3]; 50 mg/kg oral) | responders at 100 mg/kg ([3]; 100 mg/kg oral) | other results
1 | NC(=O)[C@H](O)c1ccccc1-c1ccccc1 (single isomer, unassigned) [Example 207, 2-(Biphenyl-2-yl)-2R-hydroxyacetamide] | 66.7% | 100% | 66.7% | 66.7% | anticonvulsant action in maximum electroshock seizure (MES) model test [1]: anticonvulsant action was observed; ED50 ([2]; 6 Hz psychomotor seizure model, mice, oral, read-out: ED50): 86.6 mg/kg; efficacy in 6 Hz psychomotor seizure model ([2]; mice, oral administration at a dose of 100 mg/kg): potent efficacy; 6 Hz (Positive number/tested number) ([2]; mice, oral): 7/10/100; anticonvulsant action in subcutaneously pentetrazol-injected model (scPTZ) test [3]: anticonvulsant action was observed
2 | NC(=O)C(F)c1ccccc1-c1ccccc1 (single isomer, unassigned) [Example 209, 2-(Biphenyl-2-yl)-2-fluoroacetamide] |  |  |  |  | MES (positive number/tested number) [1, 6]: 3/3; responders at 100 mg/kg ([1]; read-out: MES (positive number/tested number), 100 mg/kg oral, Slc: ddY male mice, 3 per group, electrical stimulation 1 hour after administration): 100%; anticonvulsant action in maximum electroshock seizure (MES) model test [1]: anticonvulsant action was observed; ED50 ([2]; po): 109 mg/kg; 6 Hz (Positive number/tested number) ([2]; mice, oral): 6/10/100; scPTZ (positive number/tested number) ([3]; 50 mg/kg oral): 2/3; scPTZ (positive number/tested number) ([3]; 100 mg/kg oral): 2/3; anticonvulsant action in subcutaneously pentetrazol-injected model (scPTZ) test [3]: anticonvulsant action was observed
3 | NC(=O)C(F)c1ccccc1-c1ccccc1 (single isomer, unassigned) [Example 210, 2-(Biphenyl-2-yl)-2-fluoroacetamide] |  |  |  |  | MES (positive number/tested number) [1, 6]: 2/3; MES (positive number/tested number) [1, 7]: 3/3; anticonvulsant action in maximum electroshock seizure (MES) model test [1]: anticonvulsant action was observed; 6 Hz (Positive number/tested number) ([2]; mice, oral): 4/5/100; scPTZ (positive number/tested number) ([3]; 50 mg/kg oral): 3/3; scPTZ (positive number/tested number) ([3]; 100 mg/kg oral): 3/3; anticonvulsant action in subcutaneously pentetrazol-injected model (scPTZ) test [3]: anticonvulsant action was observed
4 | CC(C(N)=O)c1ccccc1-c1cccc(F)c1 (stereo not shown) [Example 175, 2-(3′-fluorobiphenyl-2-yl)propanamide] | 0% | 66.7% | 0% | 100% | 
5 | CNC(=O)C(C)c1ccccc1-c1cccc(F)c1 (stereo not shown) [Example 176] |  | 33.3% |  | 0% | 
6 | CC(C(N)=O)c1ccccc1-c1cccc(Cl)c1 (stereo not shown) [Example 177] |  | 0% |  | 33.3% | 
7 | NC(=O)C(O)c1ccccc1-c1ccc(F)cc1 (stereo not shown) [Example 179] | 33.3% | 100% |  | 33.3% | 
8 | NC(=O)C(O)c1ccccc1-c1cccc(Cl)c1 (stereo not shown) [Example 180] | 33.3% | 100% |  | 33.3% | 
9 | NC(=O)C(O)c1ccc(F)cc1-c1ccccc1 (stereo not shown) [Example 181, 2-(5-fluorobiphenyl-2-yl)-2-hydroxyacetamide] | 33.3% | 100% | 0% | 66.7% | 
10 | NC(=O)C(O)c1ccc(F)cc1-c1cccc(F)c1 (stereo not shown) [Example 182, 2-(3′,5-difluorobiphenyl-2-yl)-2-hydroxyacetamide] | 33.3% | 100% | 0% | 100% | 
11 | NC(=O)C(O)c1ccc(F)cc1-c1cc(Cl)cc(Cl)c1 (stereo not shown) [Example 184, 2-(3′,5′-dichloro-5-fluorobiphenyl-2-yl)-2-hydroxyacetamide] | 66.7% | 100% | 33.3% | 66.7% | 
12 | NC(=O)C(O)c1cc(F)ccc1-c1ccccc1 (stereo not shown) [Example 186, 2-(4-fluorobiphenyl-2-yl)-2-hydroxyacetamide] | 100% | 100% | 66.7% | 66.7% | anticonvulsant action in maximum electroshock seizure (MES) model test [1]: anticonvulsant action was observed; anticonvulsant action in subcutaneously pentetrazol-injected model (scPTZ) test [3]: anticonvulsant action was observed
13 | NC(=O)C(O)c1cc(F)ccc1-c1ccccc1F (stereo not shown) [Example 187] |  | 100% |  | 0% | 
14 | NC(=O)C(O)c1cc(F)ccc1-c1cccc(F)c1 (stereo not shown) [Example 188, 2-(3′,4-difluorobiphenyl-2-yl)-2-hydroxyacetamide] | 33.3% | 100% | 0% | 66.7% | 
15 | NC(=O)C(O)c1ccccc1-c1cc(F)cc(Cl)c1 (stereo not shown) [Example 191, 2-(3′-chloro-5′-fluorobiphenyl-2-yl)-2-hydroxyacetamide] | 100% | 100% | 33.3% | 100% | 
16 | NC(=O)C(O)c1ccccc1-c1cc(F)ccc1F (stereo not shown) [Example 192] |  | 100% |  | 33.3% | 
17 | NC(=O)C(O)c1ccccc1-c1cc(F)c(F)c(F)c1 (stereo not shown) [Example 193, 2-hydroxy-2-(3′,4′,5′-trifluorobiphenyl-2-yl)acetamide] | 100% | 100% | 100% | 66.7% | 
18 | NC(=O)C(O)c1ccccc1-c1cc(Cl)ccc1F (stereo not shown) [Example 194, 2-(5′-chloro-2′-fluorobiphenyl-2-yl)-2-hydroxyacetamide] | 33.3% | 100% | 33.3% | 66.7% | 
19 | NC(=O)C(O)c1ccccc1-c1ccc(Cl)c(C(F)(F)F)c1 (stereo not shown) [Example 195] |  | 100% |  | 33.3% | 
20 | COC(C(N)=O)c1ccccc1-c1cccc(F)c1 (stereo not shown) [Example 199] | 33.3% | 100% |  | 33.3% | 
21 | COC(C(N)=O)c1ccccc1-c1ccccc1F (stereo not shown) [Example 200, 2-(2′-fluorobiphenyl-2-yl)-2-methoxyacetamide] | 0% | 100% | 33.3% | 66.7% | 
22 | CNC(=O)C(OC)c1ccccc1-c1ccccc1F (stereo not shown) [Example 201, 2-(2′-fluorobiphenyl-2-yl)-2-methoxy-N-methylacetamide] | 33.3% | 66.7% | 33.3% | 66.7% | 
23 | COC(C(=O)N(C)C)c1ccccc1-c1ccccc1F (stereo not shown) [Example 202, 2-(2′-fluorobiphenyl-2-yl)-2-methoxy-N,N-dimethylacetamide] | 33.3% | 66.7% | 0% | 100% | 
24 | COC(C(N)=O)c1ccccc1-c1ccc(F)cc1 (stereo not shown) [Example 203, 2-(4′-fluorobiphenyl-2-yl)-2-methoxyacetamide] | 33.3% | 66.7% | 66.7% | 100% | 
25 | CNC(=O)C(OC)c1ccccc1-c1ccc(F)cc1 (stereo not shown) [Example 204] | 0% | 100% |  | 0% | 
26 | COC(C(=O)N(C)C)c1ccccc1-c1ccc(F)cc1 (stereo not shown) [Example 205, 2-(4′-fluorobiphenyl-2-yl)-2-methoxy-N,N-dimethylacetamide] | 0% | 100% | 33.3% | 66.7% | 
27 | COC(C(N)=O)c1ccccc1-c1cccc(Cl)c1 (stereo not shown) [Example 206, 2-(3′-chlorobiphenyl-2-yl)-2-methoxyacetamide] | 33.3% | 66.7% | 0% | 66.7% | 
28 | NC(=O)[C@@H](O)c1ccccc1-c1cc(Cl)cc(Cl)c1 [Example 216, 2-(3′,5′-dichlorobiphenyl-2-yl)-2S-hydroxyacetamide] |  |  |  |  | MES (positive number/tested number) [1, 6]: 1/3; MES (positive number/tested number) [1, 7]: 2/3; scPTZ (positive number/tested number) ([3]; 50 mg/kg oral): 1/3; scPTZ (positive number/tested number) ([3]; 100 mg/kg oral): 1/3
